Assay results published in patent US20120149766A1, “DIETARY AND PHARMACEUTICAL COMPOSITIONS COMPRISING A SAGE EXTRACT CONTAINING A MIXTURE OF TRICYCLIC […] THEIR DERIVATIVES AND THEIR USES” (DSM IP ASSETS B.V., priority 2006, published 2012).
Where two headings read alike, the source gives them in different places.

How the values were obtained:
[1] = test system: mouse; details: for Number of marbles covered by sawdust, mean ± s.e.m.: 30-min test
Protocol: Mice (n=15 per treatment group) were individually placed in transparent plastic cages (33×21×18 cm) with 5 cm of sawdust on the floor and 25 marbles (diameter 1 cm) grouped in the centre of the cage. A second, up-turned, cage served as a lid. The number of marbles covered by sawdust (by at least two-thirds) was counted at the end of the 30-min test period. Tests were performed by investigators blind to the drug treatment protocol.
Prior to testing, all test cages and marbles were “impregnated” by leaving 10 naive mice in each cage for 15 minutes.
Sage extract B (30, 100, 300 mg/kg, p.o., 24, 5 and 1 h prior to the test) was thus investigated in the marble burying test to evaluate its potential anxiolytic effects in the mouse. Clobazam, fluoxetine and venlafaxine were used as reference compounds.

[2] = test system: mouse; test: Light-dark box test in the mouse; assay type: in vivo
Description: The method, which detects anxiolytic activity, follows that described by Crawley (1981, Pharmacol. Biochem. Behav., 15:695-699). Anxiolytics increase the time spent in the light compartment.
Animals were placed in the light compartment of a two-compartment box with one half light and open (25×27×27 cm) and the other half dark and closed (20×27×27 cm). The time spent in each compartment as well as the number of times the animal crossed from one side to the other was scored during a 3-min test. 15 mice were studied per group. The test was performed blind.
Clobazam (32 mg/kg p.o., dispersed in 0.2% w/v hydroxypropylmethyl cellulose in distilled water), administered 1 h before the test, was used as reference substance. Mice in this group received additional administrations of vehicle at 24 h and 5 h before the test in order to maintain experimental blinding.

[3] = 10 mg/kg p.o. −24 h, −5 h and −1 h
[4] = 24 mg/kg p.o. −24 h, −5 h and −1 h
[5] = 32 mg/kg p.o. −1 h (vehicle at −24 h and −5 h)
[6] = 32 mg/kg p.o. −1 h (vehicle at −24 h, −5 h)
[7] = 32 mg/kg p.o. −1 h (vehicle at −24 h, −5 h), 3-min test

CNCCC(Oc1ccc(C(F)(F)F)cc1)c1ccccc1 (stereo not shown) [Fluoxetine, fluoxetine]
Number of marbles covered by sawdust, % change from control [1, 3]: −58% | Number of marbles covered by sawdust, mean ± s.e.m. [1, 3]: 7.6 ± 1.6

COc1ccc(C(CN(C)C)C2(O)CCCCC2)cc1 (stereo not shown) [Venlafaxine, venlafaxine]
Number of marbles covered by sawdust, % change from control [1, 4]: −47% | Number of marbles covered by sawdust, mean ± s.e.m. [1, 4]: 9.5 ± 1.8 | Dead after the first administration (animals/group) ([1]; 24 mg/kg p.o., mouse): #dead after the first administration ( 1/15) and after the second administration ( 1/15). | Dead after the second administration (animals/group) ([1]; 24 mg/kg p.o., mouse): #dead after the first administration ( 1/15) and after the second administration ( 1/15).

CN1C(=O)CC(=O)N(c2ccccc2)c2cc(Cl)ccc21 [Clobazam, clobazam]
Number of marbles covered by sawdust, % change from control [1, 5]: −84% | Number of marbles covered by sawdust, mean ± s.e.m. [1, 5]: 2.9 ± 1.2 | Number of crossings, % change from control [2, 6]: +6% | Time spent in light compartment, % change from control [2, 6]: +75% | Number of crossings, mean ± s.e.m. [2, 7]: 11.9 ± 1.8 NS | Time spent in light compartment, mean ± s.e.m. [2, 7]: 125.5 ± 6.4 s | Sedation (animals/group) ([2]; 32 mg/kg p.o., mouse): 2/15
